Assay results from the NIST ThermoML archive (doi:10.1021/je200508x).

Details: 101.33 kPa, Crystal, Vacuum adiabatic calorimetry

C=C(C)C(=O)[O][Sb]([O]C(=O)C(=C)C)([c]1ccccc1)([c]1ccccc1)[c]1ccccc1 [triphenyl-.lambda.5-stibanediyl bis(2-methylacrylate)]
Details	molar entropy [J/K/mol]
5 K	0.671
10 K	4.78
15 K	12.1
20 K	21.52
25 K	32.28
30 K	44.02
35 K	56.34
40 K	69.14
45 K	82.14
50 K	95.25
60 K	121.6
70 K	147.7
80 K	173.5
90 K	198.9
100 K	223.7
110 K	247.9
120 K	271.6
130 K	294.8
140 K	317.4
150 K	339.7
160 K	362.6
170 K	384.6
180 K	405.6
190 K	426.3
200 K	446.6
210 K	466.8
220 K	486.7
230 K	506.4
240 K	526
250 K	545.3
260 K	564.5
270 K	583.5
280 K	602.3
290 K	621.1
298.15 K	636.3
300 K	639.7
310 K	658.3
320 K	676.9
330 K	695
340 K	714
350 K	732
360 K	750
370 K	768
380 K	786
390 K	804
400 K	821
